Assay results reported in patent US8900880B2, “Viral citrullinated peptides and uses thereof” (Toscana Biomarkers S.R.L., priority 2009, dated 2014).

Assays:
[1] = test system: anti-citrullinated peptides/proteins antibodies (ACPA) in serum; details: 206 disease controls
Method: The MAP of the citrullinated peptide antigens according to the invention was diluted to a concentration of 20 μg/ml in phosphate buffered saline (PBS) and loaded into the wells of a polystyrene micro-titration plate (50 μl/well). […] Upon completion of the coating period, the wells containing the antigen, plus an equal number of wells which were used as controls, were treated for 1 hour at room temperature (RT) with 3% bovine serum albumin (BSA) in PBS. The patients' serum samples (diluted 1:200 in a buffer constituted by 1% BSA, 0.05% Tween X-100 in PBS) were then loaded onto the plate (50 μl/well) and left to incubate for 3 hours at RT. After the incubation period, one washing was performed with 1% PBS Tween X-100 and two washings were performed with PBS (150 μl/well). […] Upon completion of the incubation, after three washings as described above, the alkaline phosphatase substrate (p-nitrophenyl phosphate) was added to the wells and, in the presence of the enzyme, it produced a yellow product measurable by spectrophotometric techniques at a wavelength of 405 nm; its quantity was proportional to the titre of antibodies bound. The results of the test were expressed as the percentage of positivity, calculated by dividing the absorbance of each serum sample by the absorbance of a positive serum sample the value of which was set arbitrarily at 100.

[2] = test system: autoantibodies in RA sera; test: 79 RA patients tested for anti-CCP2, anti-CCP3, anti-VCP1 and anti-VCP2 (FIG. 1); assay type: binding, human
Source text: FIG. 1. […] The presence of different populations of autoantibodies is depicted in the block diagram. Number of RA sera positive (+) or negative (−) to anti-CCP2, anti-CCP3, anti-VCP1 [peptide of formula (VI)], and anti-VCP2 [peptide of formula (V)] are shown above the diagram.
Noteworthy, 7/79 (9%) anti-CCP2 and anti-CCP3 negative sera are positive to the peptide of formula (VI); 2/79 (3%) anti-CCP2 and anti-CCP3 negative sera are positive to peptide of formula (V); 1/79 (1%) anti-CCP2 and anti-CCP3 negative serum is positive to both peptides of formula (V) and formula (VI). Thus, formula (V) and (VI) allow to detect antibodies in a subgroup of anti-CCP negative RA patients (FIG. 1).

[3] = test system: anti-VCP2 antibodies (IgG) from RA sera; test: ELISA of affinity-purified anti-VCP2 antibodies from RA sera (Example 5); assay type: binding, human; details: four preparations from 4 different RA sera
Method: FIG. 4. Isolation of anti-VCP2 antibodies from RA sera was performed according to the method described in example 4.
A citrullinated peptide or MAP according to the present invention was conjugated to CNBr-activated sepharose according to standard procedures known by one skilled in the art. Total immunoglobulins from sera containing anti-CP antibodies were precipitated with 50% saturated ammonium sulfate; the precipitates were dissolved in phosphate buffer (pH 7.4) and dialyzed overnight against PBS. Enriched immunoglobulin preparations were applied to the column, and the flowthrough was collected for subsequent analysis. The column was extensively washed with 20 mM Na2HPO4, 150 mM NaCl (pH 7.2), and the antibodies bound to the column were eluted by 0.1 M glycine buffer (pH 2.8) (0.5 ml/fraction), immediately neutralized with 50 μl Tris 1M (pH 8.0), and dialyzed overnight against PBS. The anti-CP antibody content in the eluates and flowthrough was tested by ELISA.

[4] = test system: anti-CP IgG antibodies in RA patients' serum; details: cut-off 97.5th percentile of normal controls
Method: The ability to recognize specific antibodies in RA patients by MAP of formula (V), in comparison with the MAP of formula (VI) was evaluated by ELISA.
MAP of formula (V) and MAP of formula (VI) were diluted respectively to a concentration of 20 μg/ml and 5 μg/ml in PBS, loaded into the wells of a polystyrene micro-titration plate (50 μl/well), and left overnight at +4° C. Upon completion of the coating period, the wells were treated for 1 hour at RT with 3% BSA in PBS. The patients' serum samples (diluted 1:200 in a buffer constituted by 1% BSA, 0.05% Tween X-100 in PBS) were then loaded onto the plate (50 μl/well) and left to incubate for 3 hours at RT. After the incubation period, one washing was performed with 1% PBS Tween X-100 and two washings were performed with PBS (150 μl/well). An anti human-IgG antibody conjugated to the enzyme alkaline phosphatase (50 μl/well), diluted 1:3000 in 1% PBS BSA, 0.05% Tween X-100, was incubated for 3 hours at RT with stirring. Upon completion of the incubation, after three washings as described above, p-nitrophenyl phosphate was added to the wells and the absorbance at a wavelength of 405 nm was determined. The results of the test were expressed as the percentage of positivity, calculated by dividing the absorbance of each serum sample by the absorbance of a positive serum sample the value of which was set arbitrarily at 100.
Serum samples of 100 patients suffering from RA were tested by this method.

[5] = test system: anti-CP antibodies (IgG, IgM, IgA) in patients' serum samples
Method: The MAP of the citrullinated peptide antigens according to the invention was diluted to a concentration of 20 μg/ml in phosphate buffered saline (PBS) and loaded into the wells of a polystyrene micro-titration plate (50 μl/well). […] Upon completion of the coating period, the wells containing the antigen, plus an equal number of wells which were used as controls, were treated for 1 hour at room temperature (RT) with 3% bovine serum albumin (BSA) in PBS. The patients' serum samples (diluted 1:200 in a buffer constituted by 1% BSA, 0.05% Tween X-100 in PBS) were then loaded onto the plate (50 μl/well) and left to incubate for 3 hours at RT. After the incubation period, one washing was performed with 1% PBS Tween X-100 and two washings were performed with PBS (150 μl/well). […] The antibody (50 μl/well) was then incubated for 3 hours at RT with agitation. Upon completion of the incubation, after three washings as described above, the alkaline phosphatase substrate (p-nitrophenyl phosphate) was added to the wells and, in the presence of the enzyme, it produced a yellow product measurable by spectrophotometric techniques at a wavelength of 405 nm; its quantity was proportional to the titre of antibodies bound. The results of the test were expressed as the percentage of positivity, calculated by dividing the absorbance of each serum sample by the absorbance of a positive serum sample the value of which was set arbitrarily at 100.
Serum samples of 104 patients suffering from RA, 97 normal healthy subjects (NHS), and 194 disease controls (systemic lupus erythematosus, systemic scleroderma, Sjogren syndrome, mixed cryoglobulinemia, psoriasic arthritis, ankylosing spondilytis, rheumatic polymialgia and infectious mononucleosis) were tested by this method using the peptide of formula (V).

## (G Q S Cit G Q S Cit G Cit G Cit G Cit G Cit G Cit G K G)4 K2 K beta-Alanine [VCP2]
[1]; 100 RA, 100 NHS
  specificity in detecting ACPA in RA patients: high specificity
[1]; in particular IM and SLE
  antibodies detected in disease controls: no antibodies were detected
[2]; comparison of MAP of formula (V) and MAP of formula (VI)
  RA sera containing antibodies reacting with either one of the two MAP: 15%
[2]; of 79 RA patients
  anti-CCP2 and anti-CCP3 negative sera positive to the peptide: 3%
[2]; of 79 RA patients (1/79)
  anti-CCP2 and anti-CCP3 negative serum positive to both peptides: 1%
[2]; population of 79 RA patients
  positive RA sera: 52%
[3]
  reactivity of purified anti-VCP2 IgG with the antigen: very high reactivity
[4]; 100 RA patients, IgG
  anti-CP MAP antibodies found in the RA cohort: 64%
[4]
  specificity: 95%
[5]; 97 NHS and 194 disease controls
  anti-CP antibodies found in normal healthy subjects and disease controls: less than 5%
[5]; 104 RA patients (41/104), cut-off 97.5th percentile of normal controls
  anti-CP IgA antibodies found in RA serum samples: 40%
[5]; 104 RA patients (48/104), cut-off 97.5th percentile of normal controls
  anti-CP IgM antibodies found in RA serum samples: 46%
[5]; 104 RA patients (67/104), cut-off 97.5th percentile of normal controls
  anti-CP IgG antibodies found in RA serum samples: 64%
